Marks after values point to notes of the source that are not given here.
Legend:
[1] = molecular target: T1, 5-HT1A receptor (Homo sapiens, UniProt P08908); test: Radioligand binding, 5-HT1A ([3H]-8-OH-DPAT displacement)
T1 sequence (P08908 1-422): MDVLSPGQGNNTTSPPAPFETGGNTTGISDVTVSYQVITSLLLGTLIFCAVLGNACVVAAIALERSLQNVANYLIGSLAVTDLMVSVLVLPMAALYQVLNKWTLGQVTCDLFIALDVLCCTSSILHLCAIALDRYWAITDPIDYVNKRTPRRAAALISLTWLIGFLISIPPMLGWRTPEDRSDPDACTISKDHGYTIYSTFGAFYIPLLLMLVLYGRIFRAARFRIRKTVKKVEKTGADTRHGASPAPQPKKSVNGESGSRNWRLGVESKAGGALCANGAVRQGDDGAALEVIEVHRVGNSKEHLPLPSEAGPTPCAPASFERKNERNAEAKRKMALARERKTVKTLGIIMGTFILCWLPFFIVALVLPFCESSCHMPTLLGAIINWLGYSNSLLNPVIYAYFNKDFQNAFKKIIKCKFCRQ

[2] = molecular target: 5-HT7 receptor (Homo sapiens, UniProt P34969); test: Radioligand binding, 5-HT7 ([3H]-5-CT displacement)
[3] = molecular target: 5-HT6 receptor (Homo sapiens, UniProt P50406); test: Radioligand binding, 5-HT6 ([3H]-LSD displacement); conditions: for displacement % at 10^−6M, 5-HT6: values marked c in the 5-HT6 column
[4] = molecular target: dopamine D2L receptor (Homo sapiens, UniProt P14416); test: Radioligand binding, D2 ([3H]-raclopride displacement)
Chain of dopamine D2L receptor (P14416 whole entry): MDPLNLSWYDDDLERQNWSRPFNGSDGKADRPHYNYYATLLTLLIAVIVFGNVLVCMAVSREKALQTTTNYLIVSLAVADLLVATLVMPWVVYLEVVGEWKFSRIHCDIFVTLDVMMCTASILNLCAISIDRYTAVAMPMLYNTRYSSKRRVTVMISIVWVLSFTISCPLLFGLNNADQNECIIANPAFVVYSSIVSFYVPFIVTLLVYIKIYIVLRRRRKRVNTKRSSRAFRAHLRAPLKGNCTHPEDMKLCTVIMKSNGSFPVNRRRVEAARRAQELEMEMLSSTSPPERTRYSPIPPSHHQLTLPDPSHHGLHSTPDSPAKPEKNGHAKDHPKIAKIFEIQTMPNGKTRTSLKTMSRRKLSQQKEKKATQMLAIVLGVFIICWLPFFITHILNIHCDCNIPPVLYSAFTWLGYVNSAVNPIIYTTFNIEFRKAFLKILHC

Chain of 5-HT7 receptor (P34969 1-432 limits assumed): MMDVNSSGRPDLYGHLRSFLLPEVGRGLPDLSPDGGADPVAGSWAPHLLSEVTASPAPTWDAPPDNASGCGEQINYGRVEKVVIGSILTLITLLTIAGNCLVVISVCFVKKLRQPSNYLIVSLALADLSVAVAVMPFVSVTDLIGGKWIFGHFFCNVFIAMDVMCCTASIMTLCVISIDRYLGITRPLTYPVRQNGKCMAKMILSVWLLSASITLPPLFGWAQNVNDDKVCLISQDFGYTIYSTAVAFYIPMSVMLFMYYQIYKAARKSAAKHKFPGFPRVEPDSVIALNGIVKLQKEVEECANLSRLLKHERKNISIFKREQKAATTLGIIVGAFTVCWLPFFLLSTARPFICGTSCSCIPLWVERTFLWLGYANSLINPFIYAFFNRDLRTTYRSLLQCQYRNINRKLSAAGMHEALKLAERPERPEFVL
Chain of 5-HT6 receptor (P50406 whole entry): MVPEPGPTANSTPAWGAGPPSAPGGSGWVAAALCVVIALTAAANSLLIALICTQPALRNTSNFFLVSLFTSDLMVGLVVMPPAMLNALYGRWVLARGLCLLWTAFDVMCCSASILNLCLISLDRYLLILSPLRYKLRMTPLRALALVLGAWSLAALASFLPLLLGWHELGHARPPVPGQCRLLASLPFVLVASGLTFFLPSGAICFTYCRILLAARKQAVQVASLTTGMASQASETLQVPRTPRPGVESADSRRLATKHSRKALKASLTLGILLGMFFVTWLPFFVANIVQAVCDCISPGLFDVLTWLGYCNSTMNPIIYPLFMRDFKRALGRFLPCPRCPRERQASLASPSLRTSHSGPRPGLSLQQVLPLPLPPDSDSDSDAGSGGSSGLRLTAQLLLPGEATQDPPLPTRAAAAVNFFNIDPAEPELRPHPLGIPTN

In the case of Clc1cccc(Cn2ccc3c(N4CCNCC4)nc4ccccc4c32)c1 [Compound 49, 1-(3-chlorobenzyl)-4-(piperazin-1-yl)-1H-pyrrolo[3,2-c]quinoline], the Ki [1] is reported as 3.26 µM and the Ki [2] is reported as 3.27 µM.

In the case of O=S(=O)(c1cccc2ccccc12)n1ccc2c(N3CCNCC3)nc3ccc(Cl)cc3c21 [Compound 71, 8-chloro-1-(naphthalen-1-ylsulfonyl)-4-(piperazin-1-yl)-1H-pyrrolo[3,2-c]quinoline], the “displacement % at 10^−6M, 5-HT6” value [3] is reported as 98^c %.

Compound O=S(=O)(c1ccc(Cl)c(Cl)c1)n1ccc2c(N3CCNCC3)nc3ccccc3c21 [Compound 34, 1-((3,4-dichlorophenyl)sulfonyl)-4-(piperazin-1-yl)-1H-pyrrolo[3,2-c]quinoline] has a Ki [4] of 1550 nM and a Ki [2] of 1.98 µM.

With CNC1CCN(c2nc3ccccc3c3c2ccn3S(=O)(=O)c2ccccc2)C1 (stereo not drawn) [Compound 26, N-methyl-1-(1-(phenylsulfonyl)-1H-pyrrolo[3,2-c]quinolin-4-yl)pyrrolidin-3-amine] the “displacement % at 10^−6M, 5-HT6” value [3] was 90^c %.

For O=S(=O)(c1cccc(F)c1)n1ccc2c(N[C@H]3CCNC3)nc3ccccc3c21 [Compound 9, (S)-1-((3-fluorophenyl)sulfonyl)-N-(pyrrolidin-3-yl)-1H-pyrrolo[3,2-c]quinolin-4-amine], the “displacement % at 10^−6M, 5-HT6” value [3] was 99^c %.

For O=S(=O)(c1ccc2ccccc2c1)n1ccc2c(N3CCNCC3)nc3ccccc3c21 [Compound 44, 1-(naphthalen-2-ylsulfonyl)-4-(piperazin-1-yl)-1H-pyrrolo[3,2-c]quinoline], the “displacement % at 10^−6M, 5-HT6” value [3] was 99^c %.

For Nc1ccc(S(=O)(=O)n2ccc3c(N[C@H]4CCNC4)nc4ccccc4c32)cc1 [Compound 19, (S)-1-((4-aminophenyl)sulfonyl)-N-(pyrrolidin-3-yl)-1H-pyrrolo[3,2-c]quinolin-4-amine], the “displacement % at 10^−6M, 5-HT6” value [3] was 100^c %.

In the case of Nc1ccc(S(=O)(=O)n2ccc3c(NC4CCNC4)nc4ccccc4c32)cc1 (stereo not drawn) [Compound 18, 1-((4-aminophenyl)sulfonyl)-N-(pyrrolidin-3-yl)-1H-pyrrolo[3,2-c]quinolin-4-amine], the “displacement % at 10^−6M, 5-HT6” value [3] is reported as 100^c %.

Nc1ccc2nc(N3CCNCC3)c3ccn(S(=O)(=O)c4ccc(Cl)c(Cl)c4)c3c2c1 [Compound 65, 8-amino-1-((3,4-dichlorophenyl)sulfonyl)-4-(piperazin-1-yl)-1H-pyrrolo[3,2-c]quinoline] was tested, and the “displacement % at 10^−6M, 5-HT6” value [3] was 90^c %.

For Nc1ccc(S(=O)(=O)n2ccc3c(N[C@@H]4CCNC4)nc4ccccc4c32)cc1 [Compound 20, (R)-1-((4-aminophenyl)sulfonyl)-N-(pyrrolidin-3-yl)-1H-pyrrolo[3,2-c]quinolin-4-amine], the “displacement % at 10^−6M, 5-HT6” value [3] was 99^c %.

For O=S(=O)(c1cccc2cccnc12)n1ccc2c(N3CCOCC3)nc3ccccc3c21 [Compound 79, 1-(quinolin-8-ylsulfonyl)-4-(morpholine-4-yl)-1H-pyrrolo[3,2-c]quinoline], the Ki [3] was 95 nM, the Ki [4] was 1230 nM and the Ki [2] was 3.42 µM.

For O=S(=O)(c1cccc(Cl)c1)n1ccc2c(NC3CCNC3)nc3ccc(Cl)cc3c21 (stereo not drawn) [Compound 25, 8-chloro-1-((3-chlorophenyl)sulfonyl)-N-(pyrrolidin-3-yl)-1H-pyrrolo[3,2-c]quinolin-4-amine], the “displacement % at 10^−6M, 5-HT6” value [3] was 96^c %.

In the case of O=S(=O)(c1cccc(C(F)(F)F)c1)n1ccc2c(N[C@H]3CCNC3)nc3ccccc3c21 [Compound 15, (S)-1-((3-(trifluoromethyl)phenyl)sulfonyl)-N-(pyrrolidin-3-yl)-1H-pyrrolo[3,2-c]quinolin-4-amine], the “displacement % at 10^−6M, 5-HT6” value [3] is reported as 98^c %.

Work on O=S(=O)(c1cccc(C(F)(F)F)c1)n1ccc2c(N3CCNCC3)nc3ccccc3c21 [Compound 35, 1-((3-(trifluoromethyl)phenyl)sulfonyl)-4-(piperazin-1-yl)-1H-pyrrolo[3,2-c]quinoline] yielded a Ki [4] of 2630 nM and a Ki [2] of 6.39 µM.

O=S(=O)(c1cc(F)ccc1F)n1ccc2c(NC3CCNC3)nc3ccccc3c21 (stereo not drawn) [Compound 12, 1-((2,5-difluorophenyl)sulfonyl)-N-(pyrrolidin-3-yl)-1H-pyrrolo[3,2-c]quinolin-4-amine] showed a Ki [3] of 9 nM, a Ki [1] of 7.06 µM and a Ki [2] of 5.22 µM.

With CC(C)c1ccc(S(=O)(=O)n2ccc3c(N4CCNCC4)nc4ccc([N+](=O)[O-])cc4c32)cc1 [Compound 63, 8-nitro-1-((4-isopropylphenyl)sulfonyl)-4-(piperazin-1-yl)-1H-pyrrolo[3,2-c]quinoline] the “displacement % at 10^−6M, 5-HT6” value [3] was 86^c %.

O=S(=O)(c1cccc(C(F)(F)F)c1)n1ccc2c(N[C@@H]3CCNC3)nc3ccccc3c21 [Compound 16, (R)-1-((3-(trifluoromethyl)phenyl)sulfonyl)-N-(pyrrolidin-3-yl)-1H-pyrrolo[3,2-c]quinolin-4-amine] was tested, and the “displacement % at 10^−6M, 5-HT6” value [3] was 99^c %.

In the case of “8-carbonitrile-1-(naphthalen-1-ylsulfonyl)-4-(piperazin-1-yl)-1H-pyrrolo[3,2-c]quinoline [Compound 67]”, the “displacement % at 10^−6M, 5-HT6” value [3] is reported as 100^c %.

In the case of O=S(=O)(c1ccccc1)n1ccc2c(NC3CCNC3)nc3ccccc3c21 (stereo not drawn) [Compound 4, 1-(phenylsulfonyl)-N-(pyrrolidin-3-yl)-1H-pyrrolo[3,2-c]quinolin-4-amine], the Ki [3] is reported as 4 nM, the Ki [1] is reported as 9.15 µM and the Ki [2] is reported as 7.89 µM.

With Cc1ccc2sc(S(=O)(=O)n3ccc4c(N5CCNCC5)nc5ccccc5c43)cc2c1 [Compound 47, 1-((5-methylbenzo[b]thiophen-2-yl)sulfonyl)-4-(piperazin-1-yl)-1H-pyrrolo[3,2-c]quinoline] the Ki [3] was 28 nM, the Ki [4] was 1560 nM and the Ki [2] was 2.96 µM.

For O=S(=O)(c1cc(F)ccc1F)n1ccc2c(OC3CCNC3)nc3ccccc3c21 (stereo not drawn) [Compound 81, 1-((2,5-difluorophenyl)sulfonyl)-4-(pyrrolidin-3-yloxy)-1H-pyrrolo[3,2-c]quinoline], the “displacement % at 10^−6M, 5-HT6” value [3] was 96^c %.

In the case of O=S(=O)(c1cccc(Cl)c1)n1ccc2c(NC3CNC3)nc3ccccc3c21 [Compound 2, 1-((3-chlorophenyl)sulfonyl)-N-(azetidin-3-yl)-1H-pyrrolo[3,2-c]quinolin-4-amine], the “displacement % at 10^−6M, 5-HT6” value [3] is reported as 98^c %.

Compound CC(C)(C)c1ccc(S(=O)(=O)n2ccc3c(NC4CCNC4)nc4ccccc4c32)cc1 (stereo not drawn) [Compound 17, 1-((4-(tert-butyl)phenyl)sulfonyl)-N-(pyrrolidin-3-yl)-1H-pyrrolo[3,2-c]quinolin-4-amine] has a Ki [3] of 101 nM, a Ki [1] of 6.31 µM and a Ki [2] of 1.29 µM.

O=S(=O)(c1cccc(Cl)c1)n1ccc2c(N3CCCNCC3)nc3ccccc3c21 [Compound 75, 1-((3-chlorophenyl)sulfonyl)-4-(1,4-diazepan-1-yl)-1H-pyrrolo[3,2-c]quinoline] was tested, and the “displacement % at 10^−6M, 5-HT6” value [3] was 100^c %.

O=S(=O)(c1cccc(Cl)c1)n1ccc2c(NC3CCNC3)nc3cc(F)ccc3c21 (stereo not drawn) [Compound 24, 7-fluoro-1-((3-chlorophenyl)sulfonyl)-N-(pyrrolidin-3-yl)-1H-pyrrolo[3,2-c]quinolin-4-amine] was tested, and the “displacement % at 10^−6M, 5-HT6” value [3] was 95^c %.

CC(C)(C)c1ccc(S(=O)(=O)n2ccc3c(N4CCNCC4)nc4ccccc4c32)cc1 [Compound 41, 1-((4-(tert-butyl)phenyl)sulfonyl)-4-(piperazin-1-yl)-1H-pyrrolo[3,2-c]quinoline] was tested, and the Ki [3] was 41 nM, the Ki [4] was 1680 nM and the Ki [2] was 8.45 µM.

O=C(c1cccc(Cl)c1)n1ccc2c(N3CCNCC3)nc3ccccc3c21 [Compound 51, (3-chlorophenyl)-(4-(piperazin-1-yl)-1H-pyrrolo[3,2-c]quinolin-1-yl)methanone] was tested, and the “displacement % at 10^−6M, 5-HT6” value [3] was 90^C %.

Source: patent US20170239237A1, “PYRROLOQUINOLINE DERIVATIVES AS 5-HT6 ANTAGONISTS, PREPARATION METHOD AND USE THEREOF” (Uniwersytet Jagiellonski, priority 2013, published 2017)
